System: Echinochloa crus-galli
Assay: Post-emergence herbicidal activity against Echinochloa crus-galli (barnyard grass) assessed as visual injury at 4 kg/ha after 9 days relative to control
Format: functional

Question: For CN1C(=O)[C@](O)(Cc2cccc(O)c2)N(C)C(=O)[C@@H]1Cc1c[nH]c2cccc([N+](=O)[O-])c12 [THAXTOMIN A], which Activity is on record?
Answer: The Activity was 85%.

From ChEMBL document CHEMBL3046609, “Herbicidal properties of the thaxtomin group of phytotoxins” (2001)
